Measurements reported in US12370192B2, “Azole-fused pyridazin-3(2H)-one derivatives” (TAKEDA PHARMACEUTICAL COMPANY LIMITED, priority 2019, dated 2025).

Legend:
human GPR139 receptor [1] = molecular target: T1, human GPR139 receptor (Homo sapiens, UniProt Q6DWJ6); assay: GPR139 Competition Binding (membrane-based, tritium-labeled ligand); settings: T-REx-CHO membranes with human GPR139; 6.5 nM tritium-labeled ligand; 11-point curve, 30 μM maximum concentration; read-out: GPR139 Binding Affinity (pKi) (converted)
T1 construct: expressed in transfected cells; host or cells: T-REx-CHO (Thermo Fisher Scientific), doxycycline-induced
T1 sequence (Q6DWJ6 1-353): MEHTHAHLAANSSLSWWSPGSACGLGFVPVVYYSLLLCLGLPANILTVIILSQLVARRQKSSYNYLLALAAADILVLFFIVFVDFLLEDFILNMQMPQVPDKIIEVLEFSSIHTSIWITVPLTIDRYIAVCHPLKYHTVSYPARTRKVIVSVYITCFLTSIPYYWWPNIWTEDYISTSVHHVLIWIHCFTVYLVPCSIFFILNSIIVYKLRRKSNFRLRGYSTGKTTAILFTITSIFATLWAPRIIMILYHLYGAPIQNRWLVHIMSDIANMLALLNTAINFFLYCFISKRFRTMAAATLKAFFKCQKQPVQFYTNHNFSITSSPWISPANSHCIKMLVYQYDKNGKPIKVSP
Summary of the method: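 Membranes came from doxycycline-induced T-REx-CHO cells expressing human GPR139. They were incubated 20 min at room temperature with 6.5 nM tritiated ligand and compound (11 points, top 30 μM) in HEPES pH 7.3 buffer with MgCl2/CaCl2. Filter-bound counts gave Ki by four-parameter fit, reported as pKi.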

human GPR139 receptor [2] = molecular target: T1, human GPR139 receptor; assay: Measurement of GPR139 Activation Via Calcium Signaling (FLIPR, T-REx-CHO cells); assay type: cell-based; settings: T-REx-CHO cells stably expressing human GPR139, 11-point dose response, 10 μM maximum concentration, read-out: GPR139 Potency (pEC50) (converted)
Summary of the method: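 Calcium flux read by FLIPR for 1 min after adding compounds (11 concentrations, maximum 10 μM) to doxycycline-induced (2 μg/mL, 17 h) T-REx-CHO cells expressing human GPR139. Cells dye-loaded 40 min at 37 °C in HBSS, 1 mM HEPES pH 7.4 with probenecid; activation reported as pEC50 from four-parameter logistic fit.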

SMILES | Ki (human GPR139 receptor [1]) [nM] | EC50 (human GPR139 receptor [2]) [nM]
Cc1nn(CC(=O)N[C@@H](C)c2ccc(C(F)(F)F)cc2)c(=O)c2cnn(C(C)C)c12 [Example 75, (S)-2-(1-isopropyl-7-methyl-4-oxo-1,4-dihydro-5H-pyrazolo[3,4-d]pyridazin-5-yl)-N-(1-(4-(trifluoromethyl)phenyl)ethyl)acetamide] | 2340 | 617
Cc1ccc([C@H](C)NC(=O)Cn2ncc3c(c(C)nn3C(C)C)c2=O)c(F)c1 [Example 92, (S)—N-(1-(2-fluoro-4-methylphenyl)ethyl)-2-(1-isopropyl-3-methyl-4-oxo-1,4-dihydro-5H-pyrazolo[3,4-d]pyridazin-5-yl)acetamide] | 100 | 57.5
Cc1ccc([C@H](C)NC(=O)Cn2nc(C)c3cnn(-c4ccccc4)c3c2=O)c(F)c1 [Example 6, (S)—N-(1-(2-fluoro-4-methylphenyl)ethyl)-2-(4-methyl-7-oxo-1-phenyl-1,7-dihydro-6H-pyrazolo[3,4-d]pyridazin-6-yl)acetamide] | 23.4 | ≥ 10000
Cc1ccc([C@H](C)NC(=O)Cn2nc(C)c3cnn(C)c3c2=O)c(F)c1 [Example 41, (S)-2-(1,4-dimethyl-7-oxo-1,7-dihydro-6H-pyrazolo[3,4-d]pyridazin-6-yl)-N-(1-(2-fluoro-4-methylphenyl)ethyl)acetamide] | 74.1 | 34.7
Cc1ccc([C@H](C)NC(=O)Cn2nc(C)c3c(C)nn(C4CC4)c3c2=O)c(F)c1 [Example 69, (S)-2-(1-cyclopropyl-3,4-dimethyl-7-oxo-1,7-dihydro-6H-pyrazolo[3,4-d]pyridazin-6-yl)-N-(1-(2-fluoro-4-methylphenyl)ethyl)acetamide] | 0.447 | 69.2
Cc1cn(C2CC2)c2cnn(CC(=O)N[C@@H](C)c3ccccc3)c(=O)c12 [Example 146, (S)-2-(1-cyclopropyl-3-methyl-4-oxo-1,4-dihydro-5H-pyrrolo[2,3-d]pyridazin-5-yl)-N-(1-phenylethyl)acetamide] | 34.7 | 51.3
Cc1nn(CC(=O)N[C@@H](C)c2ccc(C(F)(F)F)cc2)c(=O)c2c1cnn2C [Example 40, (S)-2-(1,4-dimethyl-7-oxo-1,7-dihydro-6H-pyrazolo[3,4-d]pyridazin-6-yl)-N-(1-(4-(trifluoromethyl)phenyl)ethyl)acetamide] | 251 | 33.1
Cc1ccc([C@H](C)NC(=O)Cn2nc(C)c3cnn(C(C)(C)C)c3c2=O)cc1 [Example 13, (S)-2-(1-(tert-butyl)-4-methyl-7-oxo-1,7-dihydro-6H-pyrazolo[3,4-d]pyridazin-6-yl)-N-(1-(p-tolyl)ethyl)acetamide] | 20.9 | 102
Cc1ccc([C@H](C)NC(=O)Cn2nc(C)c3c(c(C)nn3C(C)C)c2=O)c(F)c1 [Example 54, (S)—N-(1-(2-fluoro-4-methylphenyl)ethyl)-2-(1-isopropyl-3,7-dimethyl-4-oxo-1,4-dihydro-5H-pyrazolo[3,4-d]pyridazin-5-yl)acetamide] | 87.1 | 107
Cc1ccc([C@H](C)NC(=O)Cn2nc(C(C)C)c3cnn(-c4ccccc4)c3c2=O)cc1 [Example 3, (S)-2-(4-isopropyl-7-oxo-1-phenyl-1,7-dihydro-6H-pyrazolo[3,4-d]pyridazin-6-yl)-N-(1-(p-tolyl)ethyl)acetamide] | 72.4 | ≥ 10000
Cc1nn(CC(=O)N[C@@H](C)c2ccc(F)cc2Cl)c(=O)c2c1c(C)nn2C1CC1 [Example 71, (S)—N-(1-(2-chloro-4-fluorophenyl)ethyl)-2-(1-cyclopropyl-3,4-dimethyl-7-oxo-1,7-dihydro-6H-pyrazolo[3,4-d]pyridazin-6-yl)acetamide] | 0.398 | 93.3
Cc1nn(C2CC2)c2cnn(CC(=O)N[C@@H](C)c3ccc(C(F)(F)F)cc3)c(=O)c12 [Example 107, (S)-2-(1-cyclopropyl-3-methyl-4-oxo-1,4-dihydro-5H-pyrazolo[3,4-d]pyridazin-5-yl)-N-(1-(4-(trifluoromethyl)phenyl)ethyl)acetamide] | 245 | 42.7
